According to patent US9428483B2, “Prodrug of fluorine-containing amino acid” (TAISHO PHARMACEUTICAL CO., LTD., priority 2012, dated 2016):

Key:
[1] = Test 4: percent generation of Compound (IV) in human small intestine S9; format: in vitro ADME; details: 3 μM, 1 mg protein/mL, 37° C. x 1 hr
Method: A test to determine the percent generation of Compound (IV) in human intestine S9 was conducted for Inventive Compounds (I) in accordance with the following method.
Inventive Compounds were incubated (37° C.×1 hr) in a 0.1 M phosphate buffer (pH 7.4) together with a human intestine S9 fraction (Xenotech, LLC/CP710571/Lot, 710571) in the presence of Mg^2+ (5 mM), Ca^2+ (5 mM) and Zn^2+ (0.1 mM). The final concentrations of each Inventive Compound and the small intestine S9 protein were adjusted to 3 μM and 1 mg protein/mL, respectively. To the incubated reaction mixture, 3 volumes of DMSO was added, followed by stirring and centrifugation at 3000 rpm (4° C.×10 min). The resulting supernatant was subjected to analysis by a liquid chromatography-tandem mass spectrometry (LC-MS/MS) system. The lower quantitation limit was 0.3 μM for both Inventive Compounds (I) and Compound (IV).
The LC-MS/MS system used in the measurement was equipped with Waters XBridge Amide (3.5 μm, 50 mm×4.6 mm I.D.), Waters Atlantis T3 (3 μm, 50 mm×4.6 mm I.D.), or Shimadzu Shim-pack XR-ODS (2.2 μm, 30 mm×3.0 mm I.D.) as a separation column. The mobile phase was a 0.1% formic acid/acetonitrile solution or a 0.1% formic acid/methanol solution (flow rate: 0.7-1.3 mL/min) and the analyte was eluted in a linear gradient mode. MS/MS detection of Inventive Compounds (I) and Compound (IV) was performed using an API4000 or Triple quad 5500 system with TurbolonSpray interface (both being products of AB SCIEX) in either a positive or negative ion detection mode. The percent generation of Compound (IV) in human small intestine S9 is shown in the following Table 6 with respect to Inventive Compounds.

[2] = Test 1: Solution Stability Test; format: physicochemical; details: 37° C., one hour, about 50 μg/mL; for Compound's percent residue (%) pH 6.5: 20 mM phosphate buffer (pH 6.5); for Compound's percent residue (%) pH 1.2: hydrochloric acid solution (pH 1.2)
Method: Inventive Compounds (I) were tested for their stability in solutions simulating the gastric and small intestine's digestive fluids identified below.
The percent residues of Inventive Compounds (I) in a hydrochloric acid solution (pH 1.2) and 20 mM phosphate buffer (pH 6.5) were measured in accordance with the following test method.
A test compound was dissolved in a hydrochloric acid solution (pH 1.2) containing hydrochloric acid and sodium chloride or a 20 mM phosphate buffer (pH 6.5) containing disodium hydrogenphosphate, sodium dihydrogenphosphate and sodium chloride to prepare a solution with a concentration of about 50 μg/mL (near the solubility if undissolved). The solution was incubated at 37° C. for an hour and the compound's concentration before and after the incubation was quantified by high-performance liquid chromatography to calculate the percent residue of the compound.

| Compound | Percent generation (%) of Compound IV in human small intestine S9 [1] [%] | Compound's percent residue (%) pH 6.5 [2] [%] | Compound's percent residue (%) pH 1.2 [2] [%] |
| --- | --- | --- | --- |
| CC(C)C[C@H](N)C(=O)N[C@]1(C(=O)O)[C@H]2[C@@H](C[C@@H]1F)[C@@H]2C(=O)O.Cl [Ex. D-7, (1S,2S,3S,5R,6S)-2-((S)-2-amino-4-methylpentanamide)-3-fluorobicyclo[3.1.0]hexane-2,6-dicarboxylic acid hydrochloride] | 11.7 | 102 | 99 |
| Cl.NCC(=O)N[C@]1(C(=O)O)[C@H]2[C@@H](C[C@@H]1F)[C@@H]2C(=O)O [Ex. D-3, (1S,2S,3S,5R,6S)-2-(2-aminoacetamide)-3-fluorobicyclo[3.1.0]hexane-2,6-dicarboxylic acid hydrochloride] | <10 | 102 | 100 |
| Cc1oc(=O)oc1COC(=O)[C@H]1[C@@H]2C[C@H](F)[C@@](N)(C(=O)O)[C@@H]21 [Ex. A-16, (1S,2S,3S,5R,6S)-2-amino-3-fluoro-6-(((5-methyl-2-oxo-1,3-dioxol-4-yl)methoxy)carbonyl)bicyclo[3.1.0]hexane-2-carboxylic acid] | – | 98 | 99 |
| Cl.N[C@@H](Cc1ccccc1)C(=O)N[C@]1(C(=O)O)[C@H]2[C@@H](C[C@@H]1F)[C@@H]2C(=O)O [Ex. D-9, (1S,2S,3S,5R,6S)-2-((S)-2-amino-3-phenylpropanamide)-3-fluorobicyclo[3.1.0]hexane-2,6-dicarboxylic acid hydrochloride] | <10 | – | – |
| N[C@]1(C(=O)O)[C@H]2[C@@H](C[C@@H]1F)[C@@H]2C(=O)OCOC(=O)C12CC3CC(CC(C3)C1)C2 [Ex. A-1, (1S,2S,3S,5R,6S)-6-(((adamantane-1-carbonyl)oxy)methoxy)carbonyl-2-amino-3-fluorobicyclo[3.1.0]hexane-2-carboxylic acid] | – | 99 | 100 |
| Cl.NCCCC[C@H](N)C(=O)N[C@]1(C(=O)O)[C@H]2[C@@H](C[C@@H]1F)[C@@H]2C(=O)O [Ex. D-5, (1S,2S,3S,5R,6S)-2-((S)-2,6-diaminohexanamide)-3-fluorobicyclo[3.1.0]hexane-2,6-dicarboxylic acid hydrochloride] | 25.9 | – | – |
| CC(OC(=O)OC12CC3CC(CC(C3)C1)C2)OC(=O)[C@H]1[C@@H]2C[C@H](F)[C@@](N)(C(=O)O)[C@@H]21 (stereo partly drawn) [Ex. A-14, (1S,2S,3S,5R,6S)-6-((1-(((adamantan-1-yloxy)carbonyl)oxy)ethoxy)carbonyl)-2-amino-3-fluorobicyclo[3.1.0]hexane-2-carboxylic acid] | – | 97 | 95 |
| CC(OC(=O)[C@H]1[C@@H]2C[C@H](F)[C@@](N)(C(=O)O)[C@@H]21)OC(=O)C12CC3CC(CC(C3)C1)C2 (stereo partly drawn) [Ex. A-2, (1S,2S,3S,5R,6S)-6-(1-((adamantane-1-carbonyl)oxy)ethoxy)carbonyl-2-amino-3-fluorobicyclo[3.1.0]hexane-2-carboxylic acid] | – | 101 | 101 |
| CSCC[C@@H](N)C(=O)N[C@]1(C(=O)O)[C@H]2[C@@H](C[C@@H]1F)[C@@H]2C(=O)O.Cl [Ex. D-11, (1S,2S,3S,5R,6S)-2-((R)-2-amino-4-(methylthio)butanamide)-3-fluorobicyclo[3.1.0]hexane-2,6-dicarboxylic acid hydrochloride] | <10 | – | – |
| CC(OC(=O)O[C@@H]1C[C@H](C)CC[C@H]1C(C)C)OC(=O)[C@H]1[C@@H]2C[C@H](F)[C@@](N)(C(=O)O)[C@@H]21 (stereo partly drawn) [Ex. A-3, (1S,2S,3S,5R,6S)-2-amino-3-fluoro-6-((1-(((((1R,2S,5R)-2-isopropyl-5-methylcyclohexyl)oxy)carbonyl)oxy)ethoxy)carbonyl)bicyclo[3.1.0]hexane-2-carboxylic acid] | – | 100 | 100 |
| Cl.N[C@]1(C(=O)O)[C@H]2[C@@H](C[C@@H]1F)[C@@H]2C(=O)OC1OC(=O)c2ccccc21 (stereo partly drawn) [Ex. A-17, (1S,2S,3S,5R,6S)-2-amino-3-fluorobicyclo[3.1.0]hexane-2,6-dicarboxylic acid 6-(3-phthalidyl) ester hydrochloride] | – | 97 | 99 |
| CC(C)(C)C(=O)OCOC(=O)[C@H]1[C@@H]2C[C@H](F)[C@@](N)(C(=O)O)[C@@H]21 [Ex. A-7, (1S,2S,3S,5R,6S)-2-amino-3-fluoro-6-(((pivaloyloxy)methoxy)carbonyl)bicyclo[3.1.0]hexane-2-carboxylic acid] | – | 99 | 100 |
| CC(OC(=O)OC1CCCCC1)OC(=O)[C@H]1[C@@H]2C[C@H](F)[C@@](N)(C(=O)O)[C@@H]21 (stereo partly drawn) [Ex. A-10, (1S,2S,3S,5R,6S)-2-amino-6-((1-(((cyclohexyloxy)carbonyl)oxy)ethoxy)carbonyl)-3-fluorobicyclo[3.1.0]hexane-2-carboxylic acid] | – | 97 | 100 |
| CC(C)COC(C)OC(=O)[C@H]1[C@@H]2C[C@H](F)[C@@](N)(C(=O)O)[C@@H]21.Cl (stereo partly drawn) [Ex. A-8, (1S,2S,3S,5R,6S)-2-amino-3-fluoro-6-((1-(isobutyloxy)ethoxy)carbonyl)bicyclo[3.1.0]hexane-2-carboxylic acid hydrochloride] | – | 101 | 100 |
| CC(C)OC(=O)OC(C)OC(=O)[C@H]1[C@@H]2C[C@H](F)[C@@](N)(C(=O)O)[C@@H]21.O=C(O)C(F)(F)F (stereo partly drawn) [Ex. A-15, (1S,2S,3S,5R,6S)-2-amino-3-fluoro-6-((1-((isopropyloxycarbonyl)oxy)ethoxy)carbonyl)bicyclo[3.1.0]hexane-2-carboxylic acid trifluoroacetate] | – | 101 | 102 |
| Cl.O=C(O)[C@H]1[C@@H]2C[C@H](F)[C@@](NC(=O)[C@@H]3CCCN3)(C(=O)O)[C@@H]21 [Ex. D-10, (1S,2S,3S,5R,6S)-3-fluoro-2-((S)-pyrrolidine-2-(carboxyamide))bicyclo[3.1.0]hexane-2,6-dicarboxylic acid hydrochloride] | <10 | – | – |
| N[C@]1(C(=O)O)[C@H]2[C@@H](C[C@@H]1F)[C@@H]2C(=O)OCOC(=O)OC12CC3CC(CC(C3)C1)C2 [Ex. A-13, (1S,2S,3S,5R,6S)-6-(((((adamantan-1-yloxy)carbonyl)oxy)methoxy)carbonyl)-2-amino-3-fluorobicyclo[3.1.0]hexane-2-carboxylic acid] | – | 93 | 93 |
| CC(C)[C@@H]1CC[C@@H](C)C[C@H]1OC(=O)OCOC(=O)[C@H]1[C@@H]2C[C@H](F)[C@@](N)(C(=O)O)[C@@H]21 [Ex. A-4, (1S,2S,3S,5R,6S)-2-amino-3-fluoro-6-(((((((1R,2S,5R)-2-isopropyl-5-methylcyclohexyl)oxy)carbonyl)oxy)methoxy)carbonyl)bicyclo[3.1.0]hexane-2-carboxylic acid] | – | 98 | 99 |
| C[C@H](N)C(=O)N[C@@H](C)C(=O)N[C@]1(C(=O)O)[C@H]2[C@@H](C[C@@H]1F)[C@@H]2C(=O)O.Cl [Ex. D-8, (1S,2S,3S,5R,6S)-2-((S)-2-((S)-2-aminopropanamide)propanamide)-3-fluorobicyclo[3.1.0]hexane-2,6-dicarboxylic acid hydrochloride] | 11.7 | – | – |
